Measurements published in patent US10889555B2, “Sulfonamide compound or salt thereof” (Taiho Pharmaceutical Co., Ltd., priority 2016, dated 2021).
Read-outs that look alike come from different tables or passages of the source.

Tested on: HCC 1806 cells
Test: Cell proliferation inhibitory effect on human breast cancer cell line (crystal violet, 72 hours)
Format: cell-based
Settings: read-out: Cell growth suppression IC50
Protocol: Human derived breast cancer cell line HCC 1806 cells were daily passaged at a cell density not exceeding 80% in ATCC recommended Roswell Park Memorial Institute medium (RPMI-1640) containing 10% fetal bovine serum (FBS). In order to start the test of cell proliferation inhibitory activity, HCC 1806 cells were suspended in the above medium, after seeing at 180 μL in each well of a 96-well flat bottom plate so that the number of cells per well was 2,000, the cells were cultured at 37° C. for 1 day in an incubator containing 5% carbon dioxide gas. On the next day, the test compound was dissolved in DMSO, and 20 μL of a drug additive solution diluted serially with distilled water to 10 times of the final concentration was added to each well of the culture plate of the cells, and the cells were cultured at 37° C. for 72 hours in an incubator containing 5% carbon dioxide gas. After culturing for 72 hours, 20 μL of glutaraldehyde was added to each well and allowed to stand for 30 minutes, then the plate was washed 10 times with water and was dried. 100 μL of a stain solution (0.05% crystal violet in a 20% methanol solution) was added to each well and allowed to stand for 30 minutes, then the plate was washed 10 times with water and was dried. 100 μL of an extract solution (0.1 N NaH2PO4: 100% ethanol=1:1) was added to each well and mixed, and the mixture was measured at a wavelength of 540 nm using a plate reader (MTP-450 manufactured by Corona Electric Co., Ltd.). The growth inhibition rate was calculated from the following formula, and the concentration (IC50 (μM)) of a test compound inhibiting 50% was determined. Growth inhibition rate (%)={(C−B)−(T−B)}/(C−B)×100
T: Absorbance of well to which test compound was added
C: Absorbance of wells to which no test compound was added
B: Absorbance of wells to which no cell suspension was added

Row | Structure (SMILES) | IC50 (Homo sapiens, HCC1806, 72 h) [nM] | IC50 [nM]
1 | Cc1ccc(F)c([C@@H](C)[C@H](NS(=O)(=O)c2ccc(F)c3c2OCCC3(C)O)c2n[nH]c(=O)o2)c1C (single isomer, unassigned) [Example 224B] | 770 | –
2 | COc1c(S(=O)(=O)N[C@H](c2n[nH]c(=O)o2)[C@H](C)c2c(F)ccc(C)c2C)ncc(Cl)c1C(C)O (stereo partly drawn) [Example 216, 5-chloro-N-((1S,2R)-2-(6-fluoro-2,3-dimethylphenyl)-1-(5-oxo-4,5-dihydro-1,3,4-oxadiazol-2-yl)propyl)-4-(1-hydroxyethyl)-3-methoxypyridine-2-sulfonamide] | 670 | –
3 | COc1cc(Cl)ccc1S(=O)(=O)N[C@H](c1n[nH]c(=O)o1)[C@H](C)c1c(F)ccc(C)c1C [Example 83, 4-chloro-N-((1S,2R)-2-(6-fluoro-2,3-dimethylphenyl)-1-(5-oxo-4,5-dihydro-1,3,4-oxadiazol-2-yl)propyl)-2-methoxybenzenesulfonamide] | 500 | –
4 | Cc1c(Br)ccc(F)c1[C@@H](C)[C@H](NS(=O)(=O)c1ccc(Cl)c2c1OCCC2(C)O)c1n[nH]c(=O)o1 (single isomer, unassigned) [Example 222B] | – | 670
5 | COc1c(S(=O)(=O)N[C@H](c2n[nH]c(=O)o2)[C@H](C)c2cccc(C)c2C)ccc(Cl)c1C(C)O (stereo partly drawn) [Example 203, 4-chloro-N-((1S,2R)-2-(2,3-dimethylphenyl)-1-(5-oxo-4,5-dihydro-1,3,4-oxadiazol-2-yl)propyl)-3-(1-hydroxyethyl)-2-methoxybenzenesulfonamide] | 810 | –
6 | COc1cc(Cl)ccc1S(=O)(=O)N[C@H](c1n[nH]c(=O)o1)[C@H](C)c1c(F)ccc(-c2c[nH]nc2C)c1C [Example 308, 4-chloro-N-((1S,2R)-2-(6-fluoro-2-methyl-3-(3-methyl-1H-pyrazol-4-yl)phenyl)-1-(5-oxo-4,5-dihydro-1,3,4-oxadiazol-2-yl)propyl)-2-methoxybenzenesulfonamide] | 870 | –
7 | Cc1ccc(F)c([C@@H](C)[C@H](NS(=O)(=O)c2ccc(F)c3c2OCCC3O)c2n[nH]c(=O)o2)c1C (stereo partly drawn) [Example 241, 5-fluoro-N-((1S,2R)-2-(6-fluoro-2,3-dimethylphenyl)-1-(5-oxo-4,5-dihydro-1,3,4-oxadiazol-2-yl)propyl)-4-hydroxychroman-8-sulfonamide] | 490 | –
8 | Cc1ccc(S(=O)(=O)N[C@H](c2n[nH]c(=O)o2)[C@H](C)c2c(F)ccc3ccccc23)c(C(N)=O)c1 [Example 12, 2-(N-((1S,2R)-2-(2-Fluoronaphthalen-1-yl)-1-(5-oxo-4,5-dihydro-1,3,4-oxadiazol-2-yl)propyl)sulfamoyl)-5-methylbenzamide] | 500 | –
9 | Cc1ccc(F)c([C@@H](C)[C@H](NS(=O)(=O)c2ccc(Cl)c(C(=O)N(C)C)n2)c2n[nH]c(=O)o2)c1C [Example 253, 3-chloro-6-(N-((1S,2R)-2-(6-fluoro-2,3-dimethylphenyl)-1-(5-oxo-4,5-dihydro-1,3,4-oxadiazol-2-yl)propyl)sulfamoyl)-N,N-dimethylpicolinamide] | 230 | –
10 | COc1cc(S(=O)(=O)N[C@H](c2n[nH]c(=O)o2)[C@H](C)c2c(F)ccc(C)c2C)c(C(N)=O)cc1Cl [Example 259, 5-chloro-2-(N-((1S,2R)-2-(6-fluoro-2,3-dimethylphenyl)-1-(5-oxo-4,5-dihydro-1,3,4-oxadiazol-2-yl)propyl)sulfamoyl)-4-methoxybenzamide] | 350 | –
11 | Cc1ccc(F)c([C@@H](C)[C@H](NS(=O)(=O)c2cc([N+](=O)[O-])c(Cl)cc2C(N)=O)c2n[nH]c(=O)o2)c1C [Example 262, 5-chloro-2-(N-((1S,2R)-2-(6-fluoro-2,3-dimethylphenyl)-1-(5-oxo-4,5-dihydro-1,3,4-oxadiazol-2-yl)propyl)sulfamoyl)-4-nitrobenzamide] | 170 | –
12 | COc1c(S(=O)(=O)N[C@H](c2n[nH]c(=O)o2)[C@H](C)c2c(F)ccc3ccccc23)ccc(Cl)c1C(C)O (stereo partly drawn) [Example 205, 4-chloro-N-((1S,2R)-2-(2-fluoronaphthalene-1-yl)-1-(5-oxo-4,5-dihydro-1,3,4-oxadiazol-2-yl)propyl)-3-(1-hydroxyethyl)-2-methoxybenzenesulfonamide] | 250 | –
13 | Cc1ccc(F)c([C@@H](C)[C@H](NS(=O)(=O)c2ccc(Cl)c3c2OCCN3CC(F)F)c2n[nH]c(=O)o2)c1C [Example 102, 5-chloro-4-(2,2-difluoroethyl)-N-((1S,2R)-2-(6-fluoro-2,3-dimethylphenyl)-1-(5-oxo-4,5-dihydro-1,3,4-oxadiazol-2-yl)propy1)-3,4-dihydro-2H-benzo[b][1,4]oxazine-8-sulfonamide] | 660 | –
14 | Cc1ccc(F)c([C@@H](C)[C@H](NS(=O)(=O)c2ccc(Cl)c3cccnc23)c2n[nH]c(=O)o2)c1C [Example 153, 5-chloro-N-((1S,2R)-2-(6-fluoro-2,3-dimethylphenyl)-1-(5-oxo-4,5-dihydro-1,3,4-oxadiazol-2-yl)propyl)quinoline-8-sulfonamide] | 910 | –
15 | Cc1ccc(F)c([C@@H](C)[C@H](NS(=O)(=O)c2ccc(Cl)c3c2OCCC3(C)O)c2n[nH]c(=O)o2)c1C (single isomer, unassigned) [Example 207B] | – | 250
16 | C[C@H](c1c(F)ccc2ccccc12)[C@H](NS(=O)(=O)c1ccc(Cl)c2c1OCCC2F)c1n[nH]c(=O)o1 (mixture of isomers) [Example 292, 5-chloro-4-fluoro-N-((1S,2R)-2-(2-fluoronaphthalen-1-yl)-1-(5-oxo-4,5-dihydro-1,3,4-oxadiazol-2-yl)propyl)chroman-8-sulfonamide] | 750 | –
17 | Cc1ccc(F)c([C@@H](C)[C@H](NS(=O)(=O)c2ccc(C(F)(F)F)c3c2OCCC3O)c2n[nH]c(=O)o2)c1C (single isomer, unassigned) [Example 244A] | 720 | –
18 | Cc1ccc(F)c([C@@H](C)[C@H](NS(=O)(=O)c2cc(C(=O)N(C)C)ccc2C(N)=O)c2n[nH]c(=O)o2)c1C [Example 37, 3-(N-((1S,2R)-2-(6-fluoro-2,3-dimethylphenyl)-1-(5-oxo-4,5-dihydro-1,3,4-oxadiazol-2-yl)propyl)sulfamoyl)-N1,N1-dimethylterephthalamide] | 820 | –
19 | C[C@H](c1c(F)ccc2ccccc12)[C@H](NS(=O)(=O)c1ccc(Cl)c2c1OCCC2O)c1n[nH]c(=O)o1 (single isomer, unassigned) [Example 234A] | 570 | –
20 | Cc1ccc(F)c([C@@H](C)[C@H](NS(=O)(=O)c2ccc(F)c3c2OCCC3(C)O)c2n[nH]c(=O)o2)c1C (single isomer, unassigned) [Example 224A] | 100 | –
21 | Cc1c(Cl)ccc(F)c1[C@@H](C)[C@H](NS(=O)(=O)c1ccc(Cl)c2c1OCCN2C)c1n[nH]c(=O)o1 [Example 289, 5-chloro-N-((1S,2R)-2-(3-chloro-6-fluoro-2-methylphenyl)-1-(5-oxo-4,5-dihydro-1,3,4-oxadiazol-2-yl)propyl)-4-methyl-3,4-dihydro-2H-benzo[b][1,4]oxazine-8-sulfonamide] | 600 | –
22 | CC(=O)OC1(C(F)(F)F)CCOc2c1cccc2S(=O)(=O)N[C@H](c1n[nH]c(=O)o1)[C@H](C)c1c(F)ccc(C)c1C (stereo partly drawn) [Example 106, 8-(N-((1S,2R)-2-(6-fluoro-2,3-dimethylphenyl)-1-(5-oxo-4,5-dihydro-1,3,4-oxadiazol-2-yl)propyl)sulfamoyl)-4-(tifluoromethyl)chroman-4-yl acetate] | 380 | –
23 | CCN1CCOc2c(S(=O)(=O)N[C@H](c3n[nH]c(=O)o3)[C@H](C)c3c(F)ccc(C)c3C)ccc(Cl)c21 [Example 94, 5-chloro-4-ethyl-N-((1S,2R)-2-(6-fluoro-2,3-dimethylphenyl)-1-(5-oxo-4,5-dihydro-1,3,4-oxadiazol-2-yl)propyl)-3,4-dihydro-2H-benzo [b][1,4]oxazine-8-sulfonamide] | 480 | –
24 | Cc1ccc(F)c([C@@H](C)[C@H](NS(=O)(=O)c2ncc(Br)cc2C(N)=O)c2n[nH]c(=O)o2)c1C [Example 250, 5-bromo-2-(N-((1S,2R)-2-(6-fluoro-2,3-dimethylphenyl)-1-(5-oxo-4,5-dihydro-1,3,4-oxadiazol-2-yl)propyl)sulfamoyl)nicotinamide] | 120 | –
25 | Cc1c(Br)ccc(F)c1[C@@H](C)[C@H](NS(=O)(=O)c1ccc(Br)cc1C(N)=O)c1n[nH]c(=O)o1 [Example 35, 5-bromo-2-(N-((1S,2R)-2-(3-bromo-6-fluoro-2-methylphenyl)-1-(5-oxo-4,5-dihydro-1,3,4-oxadiazol-2-yl)propyl)sulfamoyl)benzamide] | 670 | –
26 | Cc1ccc(F)c([C@@H](C)[C@H](NS(=O)(=O)c2ccc(Cl)cc2-c2ccno2)c2n[nH]c(=O)o2)c1C [Example 91, 4-chloro-N-((1S,2R)-2-(6-fluoro-2,3-dimethylphenyl)-1-(5-oxo-4,5-dihydro-1,3,4-oxadiazol-2-yl)propyl)-2-(isoxazol-5-yl)benzenesulfonamide] | 980 | –
27 | COc1nc(Cl)ccc1S(=O)(=O)N[C@H](c1n[nH]c(=O)o1)[C@H](C)c1c(F)ccc(C)c1C [Example 148] | 400 | –
